Results on 23 compounds are retold here after patent US11203571B2, “Sulfonamides as modulators of sodium channels” (VERTEX PHARMACEUTICALS INCORPORATED, priority 2013, dated 2021).

The structures appear in SMILES notation.

One data set has as its target human Nav1.8 (Homo sapiens (Human), UniProt Q9Y5Y9). In words: E-VIPR optical membrane potential assay with electrical stimulation. In kind it is cell-based. Conditions: HEK cells expressing human Nav1.8. The source says:
E-VIPR Optical Membrane Potential Assay Method with Electrical Stimulation
Sodium channels are voltage-dependent proteins that can be activated by inducing membrane voltage changes by applying electric fields. The electrical stimulation instrument and methods of use are described in Ion Channel Assay Methods PCT/US01/21652, herein incorporated by reference and are referred to as E-VIPR. The instrument comprises a microtiter plate handler, an optical system for exciting the coumarin dye while simultaneously recording the coumarin and oxonol emissions, a waveform generator, a current- or voltage-controlled amplifier, and a device for inserting electrodes in well. Under integrated computer control, this instrument passes user-programmed electrical stimulus protocols to cells within the wells of the microtiter plate.
24 hours before the assay on E-VIPR, HEK cells expressing human Nav1.8 were seeded in 384-well poly-lysine coated plates at 15,000-20,000 cells per well. HEK cells were grown in media (exact composition is specific to each cell type and NaV subtype) supplemented with 10% FBS (Fetal Bovine Serum, qualified; GibcoBRL #16140-071) and 1% Pen-Strep (Penicillin-Streptomycin; GibcoBRL #15140-122). Cells were grown in vented cap flasks, in 90% humidity and 5% CO2.
• 100 mg/mL Pluronic F-127 (Sigma #P2443), in dry DMSO • Compound Plates: 384-well round bottom plate, e.g. Corning 384-well Polypropylene Round Bottom #3656 • Cell Plates: 384-well tissue culture treated plate, e.g. Greiner #781091-1B • 10 mM DiSBAC6(3) (Aurora #00-100-010) in dry DMSO • 10 mM CC2-DMPE (Aurora #00-100-008) in dry DMSO • 200 mM ABSC1 in H20
Bath1 buffer: Glucose 10 mM (1.8 g/L), Magnesium Chloride (Anhydrous), 1 mM (0.095 g/L), Calcium Chloride, 2 mM (0.222 g/L), HEPES 10 mM (2.38 g/L), Potassium Chloride, 4.5 mM (0.335 g/L), Sodium Chloride 160 mM (9.35 g/L).
Hexyl Dye Solution: Bath1 Buffer+0.5% β-cyclodextrin (make this prior to use, Sigma #C4767), 8 μM CC2-DMPE+2.5 μM DiSBAC6(3). To make the solution Added volume of 10% Pluronic F127 stock equal to volumes of CC2-DMPE+DiSBAC6(3). The order of preparation was first mix Pluronic and CC2-DMPE, then added DiSBAC6(3) while vortexing, then added Bath1+β-Cyclodextrin.
1) Pre-spotted compounds (in neat DMSO) into compound plates. Vehicle control (neat DMSO), the positive control (20 mM DMSO stock tetracaine, 125 μM final in assay) and test compounds were added to each well at 160× desired final concentration in neat DMSO. Final compound plate volume was 80 μL (80-fold intermediate dilution from 1 μL DMSO spot; 160-fold final dilution after transfer to cell plate). Final DMSO concentration for all wells in assay was 0.625%.
2) Prepared Hexyl Dye Solution.
3) Prepared cell plates. On the day of the assay, medium was aspirated and cells were washed three times with 100 μL of Bath1 Solution, maintaining 25 μL residual volume in each well.
4) Dispensed 25 μL per well of Hexyl Dye Solution into cell plates. Incubated for 20-35 minutes at room temp or ambient conditions.
5) Dispensed 80 μL per well of Bath1 into compound plates. Acid Yellow-17 (1 mM) was added and Potassium Chloride was altered from 4.5 to 20 mM depending on the NaV subtype and assay sensitivity.
6) Washed cell plates three times with 100 μL per well of Bath1, leaving 25 μL of residual volume. Then transferred 25 uL per well from Compound Plates to Cell Plates. Incubated for 20-35 minutes at room temp/ambient condition.
7) Read Plate on E-VIPR. Used the current-controlled amplifier to deliver stimulation wave pulses for 10 seconds and a scan rate of 200 Hz. A pre-stimulus recording was performed for 0.5 seconds to obtain the un-stimulated intensities baseline. The stimulatory waveform was followed by 0.5 seconds of post-stimulation recording to examine the relaxation to the resting state.
Data was analyzed and reported as normalized ratios of emission intensities measured in the 460 nm and 580 nm channels. […]

A short description of data set [1]: Human liver microsome assay. It counts as in vitro ADME. To be noted: 1 uM substrate, 0.5 mg/mL liver microsome, 2 mM NADPH, 37° C., referenced against time zero control. The protocol:
Human Liver Microsome Assay Protocol
Liver microsomal stability data were generated as follows. Substrates were incubated at 37° C. and shaken for 30 minutes in a phosphate buffered solution with human liver microsomes and the cofactor NADPH. A time zero control was similarly prepared, however with NADPH excluded. The final incubation concentrations were 1 uM substrate (0.2% DMSO), 0.5 mg/mL liver microsome, 2 mM NADPH, and 0.1 M phosphate. Reactions were quenched and proteins precipitated with the addition of 2 volume equivalents of ice cold acetonitrile containing an internal standard. Following a centrifugation step, aliquots from the quenched incubations were further diluted with 4 volume equivalents of a 50% aqueous methanol solution and then subjected to LC/MS/MS analysis for quantitation of parent substrate. Microsome stability values were calculated as the percent of substrate remaining after 30 minutes referenced against the time zero control.

Chain of human Nav1.8 (Q9Y5Y9 whole entry): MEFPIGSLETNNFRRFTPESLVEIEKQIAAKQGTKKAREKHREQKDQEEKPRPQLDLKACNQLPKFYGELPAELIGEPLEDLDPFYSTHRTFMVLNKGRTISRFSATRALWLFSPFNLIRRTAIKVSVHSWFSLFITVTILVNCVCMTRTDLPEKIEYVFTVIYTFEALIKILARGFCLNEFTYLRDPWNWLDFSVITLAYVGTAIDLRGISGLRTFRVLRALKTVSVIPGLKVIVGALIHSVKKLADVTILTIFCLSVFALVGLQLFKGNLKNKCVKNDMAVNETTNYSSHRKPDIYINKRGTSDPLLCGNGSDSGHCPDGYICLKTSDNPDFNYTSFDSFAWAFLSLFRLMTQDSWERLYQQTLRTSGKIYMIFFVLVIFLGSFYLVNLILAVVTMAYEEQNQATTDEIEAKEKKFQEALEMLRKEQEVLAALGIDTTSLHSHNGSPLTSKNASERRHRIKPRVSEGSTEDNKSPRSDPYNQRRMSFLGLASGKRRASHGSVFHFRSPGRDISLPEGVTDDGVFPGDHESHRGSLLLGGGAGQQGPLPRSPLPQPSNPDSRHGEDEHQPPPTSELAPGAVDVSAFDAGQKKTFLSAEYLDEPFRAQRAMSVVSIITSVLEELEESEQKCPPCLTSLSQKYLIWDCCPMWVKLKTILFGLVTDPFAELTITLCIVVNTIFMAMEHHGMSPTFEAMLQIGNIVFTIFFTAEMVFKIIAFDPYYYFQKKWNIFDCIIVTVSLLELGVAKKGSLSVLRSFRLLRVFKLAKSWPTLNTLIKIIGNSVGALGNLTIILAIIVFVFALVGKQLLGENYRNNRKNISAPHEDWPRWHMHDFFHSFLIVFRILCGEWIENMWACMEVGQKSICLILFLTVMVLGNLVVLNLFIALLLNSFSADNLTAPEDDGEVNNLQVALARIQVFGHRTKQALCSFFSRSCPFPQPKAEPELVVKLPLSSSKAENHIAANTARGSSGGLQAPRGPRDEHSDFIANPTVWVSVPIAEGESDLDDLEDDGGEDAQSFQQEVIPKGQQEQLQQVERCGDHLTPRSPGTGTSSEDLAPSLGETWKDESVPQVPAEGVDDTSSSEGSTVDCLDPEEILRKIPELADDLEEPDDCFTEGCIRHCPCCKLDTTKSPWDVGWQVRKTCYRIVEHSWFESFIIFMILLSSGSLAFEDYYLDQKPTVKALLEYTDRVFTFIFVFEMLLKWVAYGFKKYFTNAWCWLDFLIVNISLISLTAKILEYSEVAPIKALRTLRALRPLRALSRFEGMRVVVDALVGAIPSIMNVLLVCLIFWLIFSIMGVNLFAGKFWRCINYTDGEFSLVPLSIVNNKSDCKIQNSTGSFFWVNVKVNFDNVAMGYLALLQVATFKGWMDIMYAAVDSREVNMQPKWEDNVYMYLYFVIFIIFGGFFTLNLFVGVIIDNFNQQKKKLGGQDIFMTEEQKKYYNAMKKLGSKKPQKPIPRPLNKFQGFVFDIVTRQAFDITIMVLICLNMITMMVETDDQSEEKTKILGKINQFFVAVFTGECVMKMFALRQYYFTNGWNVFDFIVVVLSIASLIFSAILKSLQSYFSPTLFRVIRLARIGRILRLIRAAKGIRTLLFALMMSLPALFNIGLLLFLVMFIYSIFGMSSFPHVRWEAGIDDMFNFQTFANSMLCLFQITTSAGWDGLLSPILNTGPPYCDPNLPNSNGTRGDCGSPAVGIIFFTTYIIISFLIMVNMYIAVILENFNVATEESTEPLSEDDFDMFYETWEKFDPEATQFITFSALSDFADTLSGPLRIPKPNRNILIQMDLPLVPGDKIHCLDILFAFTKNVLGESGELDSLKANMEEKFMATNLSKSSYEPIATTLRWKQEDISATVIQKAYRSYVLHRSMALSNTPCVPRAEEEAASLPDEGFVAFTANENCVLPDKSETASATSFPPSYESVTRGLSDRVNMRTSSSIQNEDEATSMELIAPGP

For `NS(=O)(=O)c1cccc(NC(=O)c2ccc(C(F)(F)F)cc2Oc2ccc(F)cc2)c1` [Compound 1, 2-(4-fluorophenoxy)-N-(3-sulfamoylphenyl)-4-(trifluoromethyl)benzamide], the IC50 on human Nav1.8 is 0.014 µM. The “HLM: percent unchanged after 30 min” value in data set [1] was found to be 83%.

Turning to `NS(=O)(=O)c1cccc(NC(=O)c2ccc(C(F)(F)F)cc2Oc2ccc(F)cc2F)c1` [Compound 2, 2-(2,4-difluorophenoxy)-N-(3-sulfamoylphenyl)-4-(trifluoromethyl)benzamide], the half-inhibitory concentration (IC50) at human Nav1.8 turned out to be 0.022 µM. Moreover, in data set [1], the “HLM: percent unchanged after 30 min” value came to 97%.

`NS(=O)(=O)c1cccc(NC(=O)c2cc(C(F)(F)F)ccc2Oc2ccc(F)cc2)c1` [Compound 3, 2-(4-fluorophenoxy)-N-(3-sulfamoylphenyl)-5-(trifluoromethyl)benzamide] showed an IC50 on human Nav1.8 of 0.016 µM. In addition, in data set [1], the “HLM: percent unchanged after 30 min” value amounted to 117%.

Take `N#Cc1ccc(C(=O)Nc2cccc(S(N)(=O)=O)c2)c(Oc2ccc(F)cc2Cl)c1` [Compound 4, 2-(2-chloro-4-fluoro-phenoxy)-4-cyano-N-(3-sulfamoylphenyl)benzamide]: the IC50 against human Nav1.8 was found to be 0.027 µM. Further, in data set [1], the “HLM: percent unchanged after 30 min” value was 118%.

For `NS(=O)(=O)c1cccc(NC(=O)c2cc(Cl)ccc2Oc2ccc(F)cc2)c1` [Compound 5, 5-chloro-2-(4-fluorophenoxy)-N-(3-sulfamoylphenyl)benzamide], the concentration for half-maximal inhibition (IC50) against human Nav1.8 was 0.021 µM. Moreover, the “HLM: percent unchanged after 30 min” value in data set [1] is on record as 107%.

For the compound `NS(=O)(=O)c1cccc(NC(=O)c2cc(C(F)(F)F)ccc2Oc2ccc(F)cc2F)c1` [Compound 6, 2-(2,4-difluorophenoxy)-N-(3-sulfamoylphenyl)-5-(trifluoromethyl)benzamide], the IC50 on human Nav1.8 came out at 0.013 µM. Further, the “HLM: percent unchanged after 30 min” value in data set [1] was determined as 106%.

In turn, `Cc1cc(C(=O)Nc2cccc(S(N)(=O)=O)c2)c(Oc2ccc(F)cc2)cc1Cl` [Compound 7, 4-chloro-2-(4-fluorophenoxy)-5-methyl-N-(3-sulfamoylphenyl)benzamide] came in with an IC50 against human Nav1.8 of 0.012 µM. Moreover, the “HLM: percent unchanged after 30 min” value in data set [1] came to 78%.

On human Nav1.8, `NS(=O)(=O)c1cccc(NC(=O)c2ccc(Cl)cc2Oc2ccc(F)cc2Cl)c1` [Compound 8, 4-chloro-2-(2-chloro-4-fluorophenoxy)-N-(3-sulfamoylphenyl)benzamide] had an IC50 of 0.01 µM. The “HLM: percent unchanged after 30 min” value in data set [1] came to 108%.

With `Cc1cc(F)ccc1Oc1cc(C#N)ccc1C(=O)Nc1cccc(S(N)(=O)=O)c1` [Compound 9, 4-cyano-2-(4-fluoro-2-methyl-phenoxy)-N-(3-sulfamoylphenyl)benzamide], 0.028 µM corresponded to half-maximal inhibition against human Nav1.8 (IC50). Besides, the “HLM: percent unchanged after 30 min” value in data set [1] is 102%.

Compound `COc1cc(F)ccc1Oc1cc(C#N)ccc1C(=O)Nc1cccc(S(N)(=O)=O)c1` [Compound 10, 4-cyano-2-(4-fluoro-2-methoxyphenoxy)-N-(3-sulfamoylphenyl)benzamide] gave an IC50 against human Nav1.8 of 0.02 µM. The “HLM: percent unchanged after 30 min” value in data set [1] is 86%.

For `N#Cc1ccc(Oc2ccc(F)cc2Cl)c(C(=O)Nc2cccc(S(N)(=O)=O)c2)c1` [Compound 11, 2-(2-chloro-4-fluorophenoxy)-5-cyano-N-(3-sulfamoylphenyl)benzamide], half-maximal inhibition against human Nav1.8 (IC50) was put at 0.024 µM. In addition, the “HLM: percent unchanged after 30 min” value in data set [1] is reported as 89%.

`Cc1cc(F)ccc1Oc1cccc(C(F)(F)F)c1C(=O)Nc1cccc(S(N)(=O)=O)c1` [Compound 12, 2-(4-fluoro-2-methylphenoxy)-N-(3-sulfamoylphenyl)-6-(trifluoromethyl)benzamide] gave an IC50 at human Nav1.8 of 0.009 µM. The “HLM: percent unchanged after 30 min” value in data set [1] was determined as 94%.

For the compound `COc1cc(F)ccc1Oc1cccc(C(F)(F)F)c1C(=O)Nc1cccc(S(N)(=O)=O)c1` [Compound 13, 2-(4-fluoro-2-methoxyphenoxy)-N-(3-sulfamoylphenyl)-6-(trifluoromethyl)benzamide], the IC50 against human Nav1.8 is 0.002 µM. Further, the “HLM: percent unchanged after 30 min” value in data set [1] is on record as 78%.

On human Nav1.8, `COc1cc(F)ccc1Oc1cc(C(F)(F)F)ccc1C(=O)Nc1cccc(S(N)(=O)=O)c1` [Compound 14, 2-(4-fluoro-2-methoxyphenoxy)-N-(3-sulfamoylphenyl)-4-(trifluoromethyl)benzamide] displayed an IC50 of 0.005 µM. Further, the “HLM: percent unchanged after 30 min” value in data set [1] came to 83%.

As to `COc1cc(F)ccc1Oc1cc(Cl)ccc1C(=O)Nc1cccc(S(N)(=O)=O)c1` [Compound 15, 4-chloro-2-(4-fluoro-2-methoxy-phenoxy)-N-(3-sulfamoylphenyl)benzamide], the IC50 against human Nav1.8 is 0.013 µM. The “HLM: percent unchanged after 30 min” value in data set [1] was found to be 81%.

The compound `COc1cc(F)ccc1Oc1ccc(Cl)cc1C(=O)Nc1cccc(S(N)(=O)=O)c1` [Compound 16, 5-chloro-2-(4-fluoro-2-methoxyphenoxy)-N-(3-sulfamoylphenyl)benzamide] registered an IC50 on human Nav1.8 of 0.007 µM. In data set [1], the “HLM: percent unchanged after 30 min” value is reported as 86%.

As to `NS(=O)(=O)c1cccc(NC(=O)c2cc(Cl)ccc2Oc2ccc(F)cc2Cl)c1` [Compound 17, 5-chloro-2-(2-chloro-4-fluorophenoxy)-N-(3-sulfamoylphenyl)benzamide], the IC50 against human Nav1.8 was 0.005 µM. Also, in data set [1], the “HLM: percent unchanged after 30 min” value was 102%.

At human Nav1.8, `Cc1cc(F)ccc1Oc1cc(C(F)(F)F)ccc1C(=O)Nc1cccc(S(N)(=O)=O)c1` [Compound 18, 2-(4-fluoro-2-methylphenoxy)-N-(3-sulfamoylphenyl)-4-(trifluoromethyl)benzamide] came in with an IC50 of 0.007 µM. Besides, in data set [1], the “HLM: percent unchanged after 30 min” value was found to be 98%.

Regarding `Cc1cc(F)ccc1Oc1cc(Cl)ccc1C(=O)Nc1cccc(S(N)(=O)=O)c1` [Compound 19, 4-chloro-2-(4-fluoro-2-methyl-phenoxy)-N-(3-sulfamoylphenyl)benzamide], at human Nav1.8, the IC50 stood at 0.016 µM. The “HLM: percent unchanged after 30 min” value in data set [1] was determined as 94%.

Regarding `COc1ccc(Oc2cc(Cl)c(Cl)cc2C(=O)Nc2cccc(S(N)(=O)=O)c2)c(OC)c1` [Compound 76, 4,5-dichloro-2-(2,4-dimethoxyphenoxy)-N-(3-sulfamoylphenyl)benzamide], in data set [1], the “HLM: percent unchanged after 30 min” value stood at 58%.

Compound `COc1cc(Cl)ccc1Oc1cc(Cl)ccc1C(=O)Nc1cccc(S(N)(=O)=O)c1` [Compound 85, 4-chloro-2-(4-chloro-2-methoxyphenoxy)-N-(3-sulfamoylphenyl)benzamide] had an IC50 against human Nav1.8 of 0.015 µM.

The compound `CC(C)Oc1ccc(Oc2cc(Cl)ccc2C(=O)Nc2cccc(S(N)(=O)=O)c2)cc1` [Compound 87, 4-chloro-2-(4-isopropoxyphenoxy)-N-(3-sulfamoylphenyl)benzamide] yielded an IC50 against human Nav1.8 of 0.029 µM.

Regarding `COc1ccc(Oc2cc(C(F)(F)F)cc(C3CC3)c2C(=O)Nc2cccc(S(N)(=O)=O)c2)cc1F` [Compound 100, 2-cyclopropyl-6-(3-fluoro-4-methoxyphenoxy)-N-(3-sulfamoylphenyl)-4-(trifluoromethyl)benzamide], the IC50 on human Nav1.8 was found to be 0.018 µM.
